According to patent US20090082326A1, “SOLUBLE DOSAGE FORMS CONTAINING CEPHEM DERIVATIVES SUITABLE FOR PARENTERAL ADMINISTRATION” (Forest Laboratories Holdings Limited, priority 2007, published 2009):
Converted amounts (≈) assume the structure as drawn. Where a name gives a salt, the structure may show the parent alone.

Key:
[1] = Part A: single-dose IM injection and IV infusion pharmacokinetic study in healthy human subjects; assay type: in vivo; settings: for Mean AUC0-∞ / Mean Cmax / Mean Tmax: prodrug; for AUC(0-inf): AUC0-∞; for half-life: T1/2
Method: (§1) The pharmacokinetic parameters described herein include area under the plasma concentration-time curve (AUC0-t and AUC0-∞), maximum plasma concentration (Cmax), and time of maximum plasma concentration (Tmax). Terminal elimination half-life (T1/2) may also be provided. The time of maximum concentration, Tmax, is determined as the time corresponding to Cmax. Area under the plasma concentration-time curve up to the time corresponding to the last measurable concentration (AUC0-t) is calculated by numerical integration using the linear trapezoidal rule as follows:
(§2) This was a two-part randomized, single and multiple-dose study to determine pharmacokinetics of ceftaroline fosamil and its the active moiety, ceftaroline, administered parenterally (both intramuscular injection and intravenous injection).
(§3) Part A of the study was a single-dose open-label study. Part B of the study was a multiple-dose study.
Twenty four subjects (six subjects per treatment group) were randomized to one of four treatment groups (A-D): The following doses were administered using vials containing 668 mg ceftaroline fosamil (USAN, molecular formula C22H21N8O8PS4.C2H4O2.H2O, molecular weight 762.75).
(§4) The duration of the study for Treatment Groups E and F was 11 days (Days-1 through 10). Ceftaroline dosing solutions for IM injection were prepared using sterile water for injection.
(§5) The pharmacokinetic parameters for ceftaroline fosamil and ceftaroline were determined using a standard assay. Blood for pharmacokinetic parameter analysis was collected from all subjects as follows: The first blood sample was collected at about 5 minutes (about 0.06 hours) after completion of the administration. Measurement was considered essentially zero prior to this point.
(§6) Part A: 5, 15, and 30 minutes and 1, 2, 4, 6, 8, 12, 18, 24, 36 and 48 hours after injection. In addition, blood were be collected from subjects receiving IV infusion immediately prior to drug injection on day 8 and at 20, 40, 60 (immediately before the end of the study-drug infusion), 65 and 75 minutes, and 1.5, 2, 3, 4, 6, 8, 12, 24, 36 and 48 hours after the start of the drug infusion on Day 8. Part B: Drug injection on Days 1 and 5, at 5, 15, and 30 minutes and 1, 2, 4, 6, […] after the first injection on Day 1, immediately prior to (within 15 minutes) of injection of morning dose on Day 4, at 12 hours post Day 4 morning dose (before evening dose) and at 5, and 30 minutes and 1, 2, 4, 6, 8, 12, 24, 36 and 48 hours after the last (morning) injection on Day 5.

[2] = Part B: multiple-dose IM injection pharmacokinetic study in healthy human subjects; assay type: in vivo
Method: as §1, §2, §3
Eighteen subjects were randomized to one of two treatment groups The IM injection was be administered to the alternating side of the gluteus in each subject.
as §4, §5, §6

[3] = Linear calculated pharmacokinetic parameters following single dose IM injection; assay type: in vivo, human; settings: for Mean AUC0-∞ / Mean Cmax / Mean Tmax: prodrug, 228 mg/mL, calculated on linear assumptions; for AUC(0-inf) / Cmax / Tmax: human, in vivo, im
Excerpt: The AUC0-∞ and Cmax values increase or decrease proportionally with the dosage of ceftaroline fosamil. Thus, one skilled in the art with the benefit of this disclosure may readily determine pharmacokinetic parameters for any specific dosage of ceftaroline fosamil (or other prodrugs of ceftaroline) used in a particular dosage form of the invention. The pro-drug in the blood is converted rapidly to the active moiety ceftaroline.
Linear calculated pharmacokinetic parameters for ceftaroline following single dose IM injection of ceftaroline fosamil using vials containing 668 mg ceftaroline fosamil (USAN) at 228 mg/mL, defined per Table 23 are shown in Table 26.
Linear calculated pharmacokinetic parameters for ceftaroline fosamil (INN) following single dose IM injection of ceftaroline fosamil USAN (at concentration of ceftaroline fosamil (anhydrous, acetate free basis of 228 mg/mL, defined per Table 23) are shown in Table 27.

[4] = tested on: aerobic and some anaerobic Gram-positive and Gram-negative bacteria; test: In vitro antimicrobial spectrum (MIC90); assay type: cell-based; settings: read-out: minimum inhibitory concentration which inhibits 90% of the microbial strains in a given species (MIC90)
[5] = Aqueous solubility (stated in the description); assay type: physicochemical; settings: water
[6] = prodrug in plasma, Treatment A: 400 mg (INN) IM, 228 mg/mL
[7] = prodrug in plasma, Treatment B: 600 mg (INN) IM, 165 mg/mL
[8] = prodrug in plasma, Treatment C: 600 mg (INN) IM, Day 1, 228 mg/mL
[9] = prodrug in plasma, Treatment C: 600 mg (INN) IV infusion over 60 mins, Day 8
[10] = prodrug in plasma, Treatment D: 1000 mg (INN) IM, 228 mg/mL
[11] = single dose IM ceftaroline fosamil (USAN) 446 mg (≡400 mg INN), 228 mg/mL
[12] = single dose IM ceftaroline fosamil (USAN) 668 mg (≡600 mg INN), 228 mg/mL
[13] = single dose IM ceftaroline fosamil (USAN) 1114 mg (≡1000 mg INN), 228 mg/mL
[14] = prodrug in plasma, Treatment E: 600 mg (INN) IM q12h, Day 5, 228 mg/mL
[15] = prodrug in plasma, Treatment E: 600 mg (INN) IM, Day 1, 228 mg/mL
[16] = single dose IM ceftaroline fosamil (USAN) 223 mg (≡200 mg INN)
[17] = single dose IM ceftaroline fosamil (USAN) 557 mg (≡500 mg INN)
[18] = single dose IM ceftaroline fosamil (USAN) 891 mg (≡800 mg INN)
[19] = single dose IM ceftaroline fosamil (USAN) 1337 mg (≡1200 mg INN)
[20] = single dose IM ceftaroline fosamil (USAN) 2005 mg (≡1800 mg INN)
[21] = human, in vivo, im, 600 mg, AUC0-t

SMILES: CCO/N=C(\C(=O)N[C@@H]1C(=O)N2C(C(=O)[O-])=C(Sc3nc(-c4cc[n+](C)cc4)cs3)CS[C@H]12)c1nsc(NP(=O)(O)O)n1 [Ceftaroline Fosamil (INN), 4-[2-[[(6R,7R)-2-carboxy-7-[[2(Z)-ethoxyimino-[5-(phosphonoamino)-1,2,4-thiadiazol-3-yl]acetyl]amino]-8-oxo-5-thia-1-azabicyclo[4.2.0]oct-2-en-3-yl]thio-4-thiazolyl]-1-methyl-, inner salt]
- more bioavailable than an IV solution of the same strength ([1]; 600 mg (INN) IM solution at 165 mg/mL vs IV): over 50%
- AUC0-t [1, 6]: 1950 ± 401 ng·h/mL
- AUC0-∞ [1, 6]: 2144 ± 421 ng·h/mL
- Cmax [1, 6]: 1113 ± 418 ng/mL
- T1/2 [1, 6]: 1.21 ± 0.49 h
- Tmax [1, 6]: 0.29 h
- AUC0-t [1, 7]: 4846 ± 975 ng·h/mL
- AUC0-∞ [1, 7]: 5118 ± 985 ng·h/mL
- Cmax [1, 7]: 2722 ± 557 ng/mL
- T1/2 [1, 7]: 1.06 ± 0.33 h
- Tmax [1, 7]: 0.75 h
- AUC0-t [1, 8]: 3060 ± 475 ng·h/mL
- AUC0-∞ [1, 8]: 3242 ± 486 ng·h/mL
- Cmax [1, 8]: 1492 ± 275 ng/mL
- T1/2 [1, 8]: 1.57 ± 0.41 h
- Tmax [1, 8]: 0.50 h
- AUC0-t [1, 9]: 2734 ± 340 ng·h/mL
- AUC0-∞ [1, 9]: 2744 ± 344 ng·h/mL
- Cmax [1, 9]: 3549 ± 465 ng/mL
- T1/2 [1, 9]: 0.07 ± 0.03 h
- Tmax [1, 9]: 0.67 h
- AUC0-t [1, 10]: 5791 ± 2795 ng·h/mL
- AUC0-∞ [1, 10]: 6229 ± 2829 ng·h/mL
- Cmax [1, 10]: 2239 ± 657 ng/mL
- T1/2 [1, 10]: 1.87 ± 0.90 h
- Tmax [1, 10]: 0.38 h
- Mean AUC0-∞ [1, 11]: 2144 ng·h/mL
- Mean Cmax [1, 11]: 1113 ng/mL
- Mean Tmax [1, 11]: 0.29 h
- Mean AUC0-∞ [1, 12]: 3242 ng·h/mL
- Mean Cmax [1, 12]: 1492 ng/mL
- Mean Tmax [1, 12]: 0.5 h
- Mean AUC0-∞ [1, 13]: 6229 ng·h/mL
- Mean Cmax [1, 13]: 2238 ng/mL
- Mean Tmax [1, 13]: 0.5 h
- AUC0-t [2, 14]: 4067 ± 782 ng·h/mL
- Cmax [2, 14]: 2223 ± 497 ng/mL
- T1/2 [2, 14]: 1.11 ± 0.35 h
- Tmax [2, 14]: 0.50 h
- AUC0-t [2, 15]: 3096 ± 850 ng·h/mL
- Cmax [2, 15]: 1575 ± 507 ng/mL
- T1/2 [2, 15]: 1.17 ± 0.52 h
- Tmax [2, 15]: 0.50 h
- Mean AUC0-∞ [3, 16]: 1162 ng·h/mL
- Mean Cmax [3, 16]: 484 ng/mL
- Mean Tmax [3, 16]: 0.3 h
- Mean AUC0-∞ [3, 17]: 2905 ng·h/mL
- Mean Cmax [3, 17]: 1210 ng/mL
- Mean Tmax [3, 17]: 0.5 h
- Mean AUC0-∞ [3, 18]: 4648 ng·h/mL
- Mean Cmax [3, 18]: 1936 ng/mL
- Mean Tmax [3, 18]: 0.5 h
- Mean AUC0-∞ [3, 19]: 6972 ng·h/mL
- Mean Cmax [3, 19]: 2904 ng/mL
- Mean Tmax [3, 19]: 0.5 h
- Mean AUC0-∞ [3, 20]: 10458 ng·h/mL
- Mean Cmax [3, 20]: 4356 ng/mL
- Mean Tmax [3, 20]: 0.5 h

SMILES: CCO/N=C(\C(=O)N[C@@H]1C(=O)N2C(C(=O)[O-])=C(Sc3nc(-c4cc[n+](C)cc4)cs3)CS[C@H]12)c1nsc(N)n1 [Ceftaroline, ceftaroline]
- MIC90 [4]: ≤ 2000 µg/mL
- solubility [5]: 2000 to 3000 µg/mL (≈ 3.31 to 4.96 mM)
- AUC greater at 165 mg/mL than at 228 mg/mL ([1]; human, in vivo): ~56%
- Bioavailability (absolute) ([1]; human, in vivo): 107 ± 7.1%
- Cmax greater at 165 mg/mL than at 228 mg/mL ([1]; human, in vivo): approximately 72%
- bioavailability ([1]; human, in vivo, Bioavailability (absolute)): ~100%
- Cmax ([1]; human, in vivo, im, 400 mg): 6971 ± 1616 ng/mL
- Tmax ([1]; human, in vivo, im, 400 mg): 1.5 (1.0-2.0) h
- AUC0-t ([1]; human, in vivo, im, 400 mg, AUC0-t): 35300 ± 6160 ng·h/mL
- AUC(0-inf) ([1]; human, in vivo, im, 400 mg): 35600 ± 6130 ng·h/mL
- half-life ([1]; human, in vivo, im, 400 mg): 2.36 ± 0.22 h
- AUC0-t ([1]; human, in vivo, im, 600 mg): 73439 ± 12080 ng·h/mL
- AUC0-∞ ([1]; human, in vivo, im, 600 mg): 73826 ± 12031 ng·h/mL
- T1/2 ([1]; human, in vivo, im, 600 mg): 2.27 ± 0.16 h
- Tmax ([1]; human, in vivo, im, 600 mg): 2.0 (1.2-2.0) h
- AUC0-t [1, 21]: 47500 ± 4010 ng·h/mL
- AUC(0-inf) ([1]; human, in vivo, im, 600 mg): 48100 ± 3850 ng·h/mL
- half-life ([1]; human, in vivo, im, 600 mg): 2.55 ± 0.49 h
- Tmax ([1]; human, in vivo, im, 600 mg, Tmax): 2 h
- Cmax ([1]; human, in vivo, im, 1000 mg): 15997 ± 3739 ng/mL
- AUC0-t ([1]; human, in vivo, im, 1000 mg, AUC0-t): 110000 ± 31300 ng·h/mL
- AUC(0-inf) ([1]; human, in vivo, im, 1000 mg): 110000 ± 31300 ng·h/mL
- half-life ([1]; human, in vivo, im, 1000 mg): 2.68 ± 0.31 h
- Tmax ([1]; human, in vivo, im, 1000 mg, Tmax): 2 h
- Tmax ([1]; human, in vivo, im, Mean Tmax): 2 h
- Tmax ([1]; human, in vivo, im, Tmax following IM injection): 1 to 2 h
- Tmax ([1]; human, in vivo, iv): 1.0 (1.0-1.0) h
- half-life ([1]; human, in vivo, iv): 2.13 ± 0.31 h
- Tmax ([1]; human, in vivo, iv, Tmax following IV infusion): ~1 h
- AUC0-t ([2]; human, in vivo, im, 600 mg): 65407 ± 11807 ng·h/mL
- T1/2 ([2]; human, in vivo, im, 600 mg): 2.51 ± 0.45 h
- AUC0-t [2, 21]: 55300 ± 11100 ng·h/mL
- half-life ([2]; human, in vivo, im, 600 mg, T1/2): 2.54 ± 0.63 h
- AUC(0-inf) ([3]; 223 mg): 17800 ng·h/mL
- Cmax ([3]; 223 mg): 3490 ng/mL
- Tmax ([3]; 223 mg): 1.5 h
- AUC(0-inf) ([3]; 557 mg): 43200 ng·h/mL
- Cmax ([3]; 557 mg): 7900 ng/mL
- Tmax ([3]; 557 mg): 2 h
- AUC(0-inf) ([3]; 891 mg): 81800 ng·h/mL
- Cmax ([3]; 891 mg): 12600 ng/mL
- Tmax ([3]; 891 mg): 2 h
- AUC(0-inf) ([3]; 1337 mg): 133000 ng·h/mL
- Cmax ([3]; 1337 mg): 18800 ng/mL
- Tmax ([3]; 1337 mg): 2 h
- AUC(0-inf) ([3]; 2005 mg): 211000 ng·h/mL
- Cmax ([3]; 2005 mg): 28100 ng/mL
- Tmax ([3]; 2005 mg): 2 h
